According to PubChem BioAssay (NCI):
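96-well plates; 48 h exposure; 5 concentrations. Endpoints by linear interpolation between flanking doses. Not reached: highest tested concentration assigned. Abbreviation: GI50, concentration required for 50% inhibition of growth. TGI is the concentration that stops growth completely.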

How the values were obtained:
Experiment in all cases: DTP human tumour cell line panel, 48 h
786-0 renal = test system: 786-0 renal
A498 renal = test system: A498 renal
A549 NSCLC = test system: A549 NSCLC
ACHN renal = test system: ACHN renal
BT-549 breast = test system: BT-549 breast
CAKI-1 renal = test system: CAKI-1 renal
CCRF-CEM leukemia = test system: CCRF-CEM leukemia
COLO 205 colon = test system: COLO 205 colon
DU-145 prostate = test system: DU-145 prostate
EKVX NSCLC = test system: EKVX NSCLC
HCC-2998 colon = test system: HCC-2998 colon
HCT-116 colon = test system: HCT-116 colon
HCT-15 colon = test system: HCT-15 colon
HL-60(TB) leukemia = test system: HL-60(TB) leukemia
HOP-62 NSCLC = test system: HOP-62 NSCLC
HOP-92 NSCLC = test system: HOP-92 NSCLC
HS 578T breast = test system: HS 578T breast
HT29 colon = test system: HT29 colon
IGROV1 ovarian = test system: IGROV1 ovarian
K-562 leukemia = test system: K-562 leukemia
KM12 colon = test system: KM12 colon
LOX IMVI melanoma = test system: LOX IMVI melanoma
M14 melanoma = test system: M14 melanoma
MALME-3M melanoma = test system: MALME-3M melanoma
MCF7 breast = test system: MCF7 breast
MDA-MB-231 breast = test system: MDA-MB-231 breast
MDA-MB-435 = test system: MDA-MB-435
MOLT-4 leukemia = test system: MOLT-4 leukemia
NCI-H226 lung = test system: NCI-H226 lung
NCI-H23 lung = test system: NCI-H23 lung
NCI-H460 lung = test system: NCI-H460 lung
NCI-H522 lung = test system: NCI-H522 lung
NCI/ADR-RES ovarian = test system: NCI/ADR-RES ovarian
OVCAR-3 ovarian = test system: OVCAR-3 ovarian
OVCAR-4 ovarian = test system: OVCAR-4 ovarian
OVCAR-5 ovarian = test system: OVCAR-5 ovarian
OVCAR-8 ovarian = test system: OVCAR-8 ovarian
PC-3 prostate = test system: PC-3 prostate
RPMI-8226 leukemia = test system: RPMI-8226 leukemia
RXF 393 renal = test system: RXF 393 renal
SF-268 CNS = test system: SF-268 CNS
SF-295 CNS = test system: SF-295 CNS
SF-539 CNS = test system: SF-539 CNS
SK-MEL-2 melanoma = test system: SK-MEL-2 melanoma
SK-MEL-28 melanoma = test system: SK-MEL-28 melanoma
SK-MEL-5 melanoma = test system: SK-MEL-5 melanoma
SK-OV-3 ovarian = test system: SK-OV-3 ovarian
SN12C renal = test system: SN12C renal
SNB-19 CNS = test system: SNB-19 CNS
SNB-75 CNS = test system: SNB-75 CNS
SR leukemia = test system: SR leukemia
SW-620 colon = test system: SW-620 colon
T-47D breast = test system: T-47D breast
TK-10 renal = test system: TK-10 renal
U251 CNS = test system: U251 CNS
UACC-257 melanoma = test system: UACC-257 melanoma
UACC-62 melanoma = test system: UACC-62 melanoma
UO-31 renal = test system: UO-31 renal

Q: For `Clc1ccccc1-c1nnc2c(Cc3ccccc3)nc3ccccc3n12`, which GI50 (786-0 renal) is on record?
A: 12.5 µM

Q: What about the TGI (786-0 renal) of the same molecule?
A: 98.3 µM

Q: What about the GI50 (A498 renal) of the same molecule?
A: 1210 nM

Q: And the TGI (A498 renal)?
A: > 100 µM

Q: And the GI50 (A549 NSCLC)?
A: 8.78 µM

Q: What about the TGI (A549 NSCLC) of the same molecule?
A: > 100 µM

Q: What about the GI50 (ACHN renal) of the same molecule?
A: 39.4 µM

Q: What about the TGI (ACHN renal) of the same molecule?
A: > 100 µM

Q: What about the GI50 (BT-549 breast) of the same molecule?
A: > 25.9 µM

Q: What about the TGI (BT-549 breast) of the same molecule?
A: > 100 µM

Q: And the GI50 (CAKI-1 renal)?
A: 9.59 µM

Q: What about the TGI (CAKI-1 renal) of the same molecule?
A: > 100 µM

Q: And the GI50 (CCRF-CEM leukemia)?
A: 7.11 µM

Q: And the TGI (CCRF-CEM leukemia)?
A: > 100 µM

Q: What about the GI50 (COLO 205 colon) of the same molecule?
A: > 29.6 µM

Q: And the TGI (COLO 205 colon)?
A: > 100 µM

Q: What about the GI50 (DU-145 prostate) of the same molecule?
A: 55.1 µM

Q: What about the TGI (DU-145 prostate) of the same molecule?
A: > 100 µM

Q: What about the GI50 (EKVX NSCLC) of the same molecule?
A: 12.7 µM

Q: What about the TGI (EKVX NSCLC) of the same molecule?
A: > 100 µM

Q: And the GI50 (HCC-2998 colon)?
A: 59.9 µM

Q: What about the TGI (HCC-2998 colon) of the same molecule?
A: > 100 µM

Q: And the GI50 (HCT-116 colon)?
A: 3.79 µM

Q: And the TGI (HCT-116 colon)?
A: > 100 µM

Q: And the GI50 (HCT-15 colon)?
A: 1560 nM

Q: And the TGI (HCT-15 colon)?
A: > 100 µM

Q: What about the GI50 (HL-60(TB) leukemia) of the same molecule?
A: 32.5 µM

Q: And the TGI (HL-60(TB) leukemia)?
A: > 100 µM

Q: And the GI50 (HOP-62 NSCLC)?
A: 9.92 µM

Q: And the TGI (HOP-62 NSCLC)?
A: > 100 µM

Q: What about the GI50 (HOP-92 NSCLC) of the same molecule?
A: 3.45 µM

Q: And the TGI (HOP-92 NSCLC)?
A: 41.8 µM

Q: And the GI50 (HS 578T breast)?
A: 9.04 µM

Q: And the TGI (HS 578T breast)?
A: > 100 µM

Q: And the GI50 (HT29 colon)?
A: 8.71 µM

Q: What about the TGI (HT29 colon) of the same molecule?
A: > 100 µM

Q: And the GI50 (IGROV1 ovarian)?
A: 44 µM

Q: What about the TGI (IGROV1 ovarian) of the same molecule?
A: > 100 µM

Q: What about the GI50 (K-562 leukemia) of the same molecule?
A: 5.55 µM

Q: And the TGI (K-562 leukemia)?
A: > 100 µM

Q: What about the GI50 (KM12 colon) of the same molecule?
A: 13.1 µM

Q: What about the TGI (KM12 colon) of the same molecule?
A: > 100 µM

Q: And the GI50 (LOX IMVI melanoma)?
A: 3.5 µM

Q: And the TGI (LOX IMVI melanoma)?
A: > 100 µM

Q: And the GI50 (M14 melanoma)?
A: > 60.5 µM

Q: And the TGI (M14 melanoma)?
A: > 100 µM

Q: And the GI50 (MALME-3M melanoma)?
A: 33 µM

Q: And the TGI (MALME-3M melanoma)?
A: > 100 µM

Q: And the GI50 (MCF7 breast)?
A: 34 µM

Q: What about the TGI (MCF7 breast) of the same molecule?
A: > 100 µM

Q: And the GI50 (MDA-MB-231 breast)?
A: 7.09 µM

Q: What about the TGI (MDA-MB-231 breast) of the same molecule?
A: > 100 µM

Q: And the GI50 (MDA-MB-435)?
A: > 100 µM

Q: And the TGI (MDA-MB-435)?
A: > 100 µM

Q: What about the GI50 (MOLT-4 leukemia) of the same molecule?
A: 9.04 µM

Q: And the TGI (MOLT-4 leukemia)?
A: > 100 µM

Q: And the GI50 (NCI-H226 lung)?
A: 6.91 µM

Q: And the TGI (NCI-H226 lung)?
A: > 100 µM

Q: And the GI50 (NCI-H23 lung)?
A: > 100 µM

Q: And the TGI (NCI-H23 lung)?
A: > 100 µM

Q: And the GI50 (NCI-H460 lung)?
A: 3.18 µM

Q: What about the TGI (NCI-H460 lung) of the same molecule?
A: > 100 µM

Q: What about the GI50 (NCI-H522 lung) of the same molecule?
A: 29.1 µM

Q: What about the TGI (NCI-H522 lung) of the same molecule?
A: > 100 µM

Q: And the GI50 (NCI/ADR-RES ovarian)?
A: 12.7 µM

Q: What about the TGI (NCI/ADR-RES ovarian) of the same molecule?
A: > 100 µM

Q: And the GI50 (OVCAR-3 ovarian)?
A: 22.8 µM

Q: What about the TGI (OVCAR-3 ovarian) of the same molecule?
A: > 100 µM

Q: And the GI50 (OVCAR-4 ovarian)?
A: 5.55 µM

Q: And the TGI (OVCAR-4 ovarian)?
A: > 100 µM

Q: What about the GI50 (OVCAR-5 ovarian) of the same molecule?
A: > 100 µM

Q: And the TGI (OVCAR-5 ovarian)?
A: > 100 µM

Q: What about the GI50 (OVCAR-8 ovarian) of the same molecule?
A: 7.21 µM

Q: What about the TGI (OVCAR-8 ovarian) of the same molecule?
A: > 100 µM

Q: What about the GI50 (PC-3 prostate) of the same molecule?
A: 4.66 µM

Q: What about the TGI (PC-3 prostate) of the same molecule?
A: > 100 µM

Q: What about the GI50 (RPMI-8226 leukemia) of the same molecule?
A: 5.64 µM

Q: And the TGI (RPMI-8226 leukemia)?
A: > 100 µM

Q: What about the GI50 (RXF 393 renal) of the same molecule?
A: 3.29 µM

Q: And the TGI (RXF 393 renal)?
A: > 100 µM

Q: What about the GI50 (SF-268 CNS) of the same molecule?
A: 7.15 µM

Q: And the TGI (SF-268 CNS)?
A: > 100 µM

Q: And the GI50 (SF-295 CNS)?
A: 8.12 µM

Q: And the TGI (SF-295 CNS)?
A: > 100 µM

Q: And the GI50 (SF-539 CNS)?
A: 24.2 µM

Q: And the TGI (SF-539 CNS)?
A: > 100 µM

Q: What about the GI50 (SK-MEL-2 melanoma) of the same molecule?
A: 59.4 µM

Q: And the TGI (SK-MEL-2 melanoma)?
A: > 100 µM

Q: What about the GI50 (SK-MEL-28 melanoma) of the same molecule?
A: > 48.8 µM

Q: What about the TGI (SK-MEL-28 melanoma) of the same molecule?
A: > 100 µM

Q: And the GI50 (SK-MEL-5 melanoma)?
A: 3.67 µM

Q: And the TGI (SK-MEL-5 melanoma)?
A: > 100 µM

Q: And the GI50 (SK-OV-3 ovarian)?
A: 22.5 µM

Q: And the TGI (SK-OV-3 ovarian)?
A: > 100 µM

Q: And the GI50 (SN12C renal)?
A: > 100 µM

Q: And the TGI (SN12C renal)?
A: > 100 µM

Q: And the GI50 (SNB-19 CNS)?
A: 36.3 µM

Q: And the TGI (SNB-19 CNS)?
A: > 100 µM

Q: What about the GI50 (SNB-75 CNS) of the same molecule?
A: 3.78 µM

Q: And the TGI (SNB-75 CNS)?
A: 40.3 µM

Q: What about the GI50 (SR leukemia) of the same molecule?
A: 3.91 µM

Q: And the TGI (SR leukemia)?
A: > 100 µM

Q: And the GI50 (SW-620 colon)?
A: 20.7 µM

Q: What about the TGI (SW-620 colon) of the same molecule?
A: > 100 µM

Q: And the GI50 (T-47D breast)?
A: 5.77 µM

Q: What about the TGI (T-47D breast) of the same molecule?
A: > 100 µM

Q: And the GI50 (TK-10 renal)?
A: 54 µM

Q: What about the TGI (TK-10 renal) of the same molecule?
A: > 100 µM

Q: And the GI50 (U251 CNS)?
A: 4.21 µM

Q: What about the TGI (U251 CNS) of the same molecule?
A: > 100 µM

Q: What about the GI50 (UACC-257 melanoma) of the same molecule?
A: 33.3 µM

Q: And the TGI (UACC-257 melanoma)?
A: > 100 µM

Q: What about the GI50 (UACC-62 melanoma) of the same molecule?
A: 6.9 µM

Q: What about the TGI (UACC-62 melanoma) of the same molecule?
A: > 100 µM

Q: What about the GI50 (UO-31 renal) of the same molecule?
A: > 50 µM

Q: What about the TGI (UO-31 renal) of the same molecule?
A: > 100 µM
